From patent US6706754B2, “Reversed amidines and methods of using for treating, preventing, or inhibiting leishmaniasis” (The United States of America as represented by the …, priority 2000, dated 2004)

What was measured:
[1] = tested on: L. donovani axenic amastigote-like parasites; test: Axenic amastigote assay (CellTiter 96 tetrazolium dye growth assay); assay type: cell-based; details: 72 hours, 37° C., pH 5.5, concentration that inhibited parasite growth by 50%
Description: The growth susceptibilities of L. donovani axenic amastigote-like parasites to the candidate compounds were measured in a three day assay using the tetrazolium dye-based CellTiter 96 Aqueous Non-Radioactive Cell Proliferation Assay Kit (Promega, Madison, Wis.) according to Werbovetz, K., et al. (1999) Mol. Biochem. Parasitol. 98:53-65, which is herein incorporated by reference. Pentamidine, at a starting concentration of 100 μM, and serial dilutions thereof were used as controls. Specifically, L. donovani axenic amastigotes, as described by Joshi, M. et al. (1993) Mol. Biochem. Parasitol. 58:345-354, which is herein incorporated by reference, were seeded at 10^6 cells/ml in 96-well flat-bottomed plates (Costar, Cambridge, Mass.) and maintained as axenic amastigote-like forms by serial passage at 37° C. in a humid atmosphere comprising 5% CO2 using a slightly modified potassium-based version of the medium described by Joshi, M. et al. (1993) in the presence or absence of a given candidate compound. The medium comprised 15 mM KCl, […] KH2PO4, 10 mM K2HPO4, 0.5 mM MgSO4, and 24 mM NaHCO3 to give a final potassium concentration of […]. The medium was supplemented with 20% fetal bovine serum and was brought to pH 5.5. The final volume in each well was 60 μl. The plates were incubated at 37° C. for 72 hours, then 12 μl of the aqueous CellTiter solution from the kit (Promega, Madison, Wis.) was added to each well according to the instructions of the manufacturer. The plates were returned to the incubator for about 2 to about 3 hours. Then the absorbance of each well was measured at 490 nm using a SpectraMax Plus microplate reader (Molecular Devices, Sunnyvale, Calif.).
The results for each candidate compound may be found in the FIG. 1. The IC50 values (the concentration of the agent that inhibited parasite growth by 50%) for each candidate compound were determined for axenic amastigotes with the aid of the program SoftMax Pro (Molecular Devices, Sunnyvale, Calif.) using the following dose response equation: y=((a−d)/1+(x/c)^b)+d, wherein x=drug concentration; y=absorbance at 490 nm; a=upper asymptote; b=slope; c=IC50; and d=lower asymptote. FIG. 2 is the graphical data obtained for compound 1DWB667 as an example.

L. donovani L82 = test: In vivo assay, murine visceral model of leishmaniasis; set-up: species or system Leishmania donovani; details: Table 4; BALB/c mice; 15 μmol/kg i.v. × 5

2,5-Bis[4-(2-pyridylimino)aminophenyl]furan [1DWB 667]
Axenic Amastigote IC50 L. donovani [1]: 0.550 µg/mL

2,5-Bis[2-methyl-4-(5-methyl-2-pyridylimino)aminophenyl]furan [DB 710]
Axenic Amastigote IC50 L. donovani [1]: 0.242 µg/mL
Axenic Amastigote IC50 L. donovani ([1]; listed as DB710): about 0.2 μg/ml

2,5-Bis[2-chloro-4-(2-pyridylimino)aminophenyl]furan [DB 712]
Axenic Amastigote IC50 L. donovani [1]: 0.308 µg/mL
% inhibition ± S.E.M. (L. donovani L82): 15.33 ± 2.7%

2,5-Bis[2-methyl-4-(2-pyridylimino)aminophenyl]furan [DB 702]
Axenic Amastigote IC50 L. donovani [1]: 0.174 µg/mL
Axenic Amastigote IC50 L. donovani ([1]; listed as DB702): about 0.2 μg/ml

2,5-Bis[2-methoxy-4-(2-pyridylimino)aminophenyl]furan [DB 709]
Axenic Amastigote IC50 L. donovani [1]: 0.157 µg/mL
Axenic Amastigote IC50 L. donovani ([1]; listed as DB709): about 0.2 μg/ml
